Structures are written as SMILES. Structures can show the parent of a compound that is named as a salt. Where two headings read alike, the source gives them in different places.

One series can be described thus: Metabolic stability. The series is classed as in vitro ADME. The conditions noted are these: stated in contrast to Chloramphenicol.
Series [1] can be described thus: Water solubility (observation on the isolated product). The series is classed as physicochemical. The conditions noted are these: in Wasser, result in words.
The test system of the next series is Salmonella typhimurium. In words: In vivo activity (mouse), infection with Salmonella typhimurium. Particulars: Salmonella enterica, po; Maus, p.o., gegen Salmonella typhimurium; hydrochloride form; read-out: In-vivo-Aktivität (Maus) (CD50 p.o.).
Series [2] can be described thus: Hydrolytic cleavage of the ester at physiological pH. It is filed as physicochemical. Particulars: bei physiologischem pH.
The nature of a further series: Acute toxicity (mouse). The conditions noted are these: in vivo, read-out: Akute Toxizität (Maus): LD50.
Series [3] relates to Pseudomonas aeruginosa BA. Put plainly: In vivo activity (mouse), infection with Pseudomonas aeruginosa BA. The conditions noted are these: po; Maus, p.o., gegen Pseudomonas aeruginosa BA; hydrochloride form; read-out: In-vivo-Aktivität (Maus) (CD50 p.o.).
The next series has as its system Streptococcos pyogenes. In words: In vivo activity (mouse), infection with Streptococcos pyogenes. The conditions noted are these: po, Maus, p.o., gegen Streptococcos pyogenes, hydrochloride form, read-out: In-vivo-Aktivität (Maus) (CD50 p.o.).
In another series the test system is Escherichia coli. In words: In vivo activity (mouse), infection with Escherichia coli. Particulars: po; Maus, p.o., gegen Escherichia coli; hydrochloride form; read-out: In-vivo-Aktivität (Maus) (CD50 p.o.).

Consider `O=C(N[C@H](CO)[C@H](O)c1ccc([N+](=O)[O-])cc1)C(F)F` [Fluoramphenicol, D-threo-1-(p-Nitrophenyl)-2-difluor-Mez/3.5.1979 acetamino-l,3-propandiol], for which the “Metabolische Beständigkeit” value in “Metabolic stability” is reported as “metabolisch beständig”.
With `C[C@H](N)C(=O)OC[C@@H](NC(=O)C(F)F)[C@H](O)c1ccc([N+](=O)[O-])cc1` [Fluoramphenicol-3-(L-alaninester)-hydrochlorid], in series [1], the Wasserlöslichkeit entry was “sehr gut wasserlösliches”.
As a reminder, the LD50 is the dose expected to kill half of the subjects tested. As for `NCC(=O)OC[C@@H](NC(=O)C(F)F)[C@H](O)c1ccc([N+](=O)[O-])cc1` [Fluoramphenicol-3-glycinester, Fluoramphenicol-3-(glycinester)-hydrochlorid], the ED50 in the series on Salmonella typhimurium is 12 mg/kg; in series [3], 47 mg/kg; in the series on Streptococcos pyogenes, 27 mg/kg; in the series with Escherichia coli, 23 mg/kg. In addition, in series [2], the “Hydrolytische Spaltung” value is reported as “sofort hydrolytisch zu wirksamem Fluoramphenicol gespalten”. The median lethal dose (LD50) is above 5000 mg/kg in “Acute toxicity (mouse)” (po) and 2000 to 4000 mg/kg in “Acute toxicity (mouse)” (sc).
On to `O=C(O)CCC(=O)OC[C@@H](NC(=O)C(F)F)[C@H](O)c1ccc([N+](=O)[O-])cc1` [Fluoramphenicol-3-monosuccinat-natriumsalz], for which, in series [1], the Wasserlöslichkeit result was “sehr gut wasserlösliches”.
Same read-out and setting: the entry for `CCCCCCCCCCCCCCCC(=O)OC[C@@H](NC(=O)C(F)F)[C@H](O)c1ccc([N+](=O)[O-])cc1` [Fluoramphenicol-3-palmitat] is “in Wasser praktisch unlösliche”.
